These results are taken from US20150184166A1 (Uinversity of Iowa Research Foundation, priority 2012, published 2015).

Data set [1] has as its target NdmB-His6 (Pseudomonas putida, UniProt H9N290). The data set is described as follows: Kinetic parameters of NdmB-His6 with His6-NdmD. The class given is biochemical, Pseudomonas putida CBB5. Particulars: for Km / kcat: NdmB-His6 plus His6-NdmD, pH 7.5, 30° C. As for the experimental part: (§1) Methylxanthine N-demethylase activity assay contained, in 1-ml total volume, 0.5 mM methylxanthine, 1 mM NADH, 50 μM Fe(NH4)2(SO4)2, and an appropriate amount of NdmA-His6 or NdmB-His6 (7.4 μg-2.5 mg protein depending on substrate specificity) in 50 mM KPi buffer (pH 7.5). Approximately 4 U of partially purified reductase, prepared as described previously (Summers et al., 2011) or 59 U of purified His6-NdmD was added to reaction mixture. Catalase from bovine liver (4,000 U) was also added to reactions containing His6-NdmD. The reaction mixture was incubated at 30° C. with 300 rpm shaking on an incubating microplate shaker (VWR, Radnor, Pa.). Periodically, a small aliquot was sampled from the reaction mixture and mixed with equal volume of acetonitrile for quantifying concentrations of methylxanthines and N-demethylated products by HPLC. One unit of N-demethylase activity was defined as the consumption of one […] methylxanthine per minute.
(§2) Apparent kinetic parameters of NdmA-His6 and NdmB-His6 were determined by measuring the initial rate of disappearance (vo) of methylxanthines in 50 mM KPi buffer (pH 7.5) at 30° C. The initial substrate concentrations ([S]) used in these experiments were from 25 to 500 μM. Substrates were incubated with His6-NdmD plus either NdmA-His6 or NdmB-His6 under standard conditions for 15 minutes. At 1, 5, 10, and 15 minutes, samples were removed from the reaction mixtures to quantitate substrate concentrations by HPLC. Plots of substrate concentrations against time were used to determine the initial rates of disappearance of substrates which were linear over 15 minutes. The apparent kinetic parameters were determined from Michaelis-Menten plots of vo against [S] fitted with the equation

Data set [2] deals with T1, NdmA-His6 (Pseudomonas putida, UniProt H9N289).
T1 sequence (H9N289 1-351): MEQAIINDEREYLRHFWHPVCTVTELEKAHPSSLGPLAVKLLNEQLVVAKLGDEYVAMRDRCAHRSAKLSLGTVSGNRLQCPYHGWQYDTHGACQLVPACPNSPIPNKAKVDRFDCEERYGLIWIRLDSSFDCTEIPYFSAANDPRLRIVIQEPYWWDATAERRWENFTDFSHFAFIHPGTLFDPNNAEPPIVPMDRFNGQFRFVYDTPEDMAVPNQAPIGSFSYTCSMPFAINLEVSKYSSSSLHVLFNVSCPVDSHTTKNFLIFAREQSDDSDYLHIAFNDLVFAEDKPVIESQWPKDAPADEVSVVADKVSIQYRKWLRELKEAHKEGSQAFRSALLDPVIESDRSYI
The data set can be described thus: Kinetic parameters of NdmA-His6 with His6-NdmD. The class given is biochemical, Pseudomonas putida CBB5. Particulars: for kcat / Km: NdmA-His6 plus His6-NdmD, pH 7.5, 30° C. As for the experimental part:
as §1, §2

For data set [3], the system named is cell extracts of P. putida CBB5. The data set can be described thus: NADH-dependent N-demethylase activity of CBB5 cell extracts. The class given is biochemical, Pseudomonas putida CBB5. Particulars: 0.5 mM substrate, 7.2 mg mL^−1 protein.
Data set [4] deals with T2, Caffeine dehydrogenase (Cdh) (Pseudomonas sp., UniProt D7REY3).
T2 sequence (D7REY3 1-791): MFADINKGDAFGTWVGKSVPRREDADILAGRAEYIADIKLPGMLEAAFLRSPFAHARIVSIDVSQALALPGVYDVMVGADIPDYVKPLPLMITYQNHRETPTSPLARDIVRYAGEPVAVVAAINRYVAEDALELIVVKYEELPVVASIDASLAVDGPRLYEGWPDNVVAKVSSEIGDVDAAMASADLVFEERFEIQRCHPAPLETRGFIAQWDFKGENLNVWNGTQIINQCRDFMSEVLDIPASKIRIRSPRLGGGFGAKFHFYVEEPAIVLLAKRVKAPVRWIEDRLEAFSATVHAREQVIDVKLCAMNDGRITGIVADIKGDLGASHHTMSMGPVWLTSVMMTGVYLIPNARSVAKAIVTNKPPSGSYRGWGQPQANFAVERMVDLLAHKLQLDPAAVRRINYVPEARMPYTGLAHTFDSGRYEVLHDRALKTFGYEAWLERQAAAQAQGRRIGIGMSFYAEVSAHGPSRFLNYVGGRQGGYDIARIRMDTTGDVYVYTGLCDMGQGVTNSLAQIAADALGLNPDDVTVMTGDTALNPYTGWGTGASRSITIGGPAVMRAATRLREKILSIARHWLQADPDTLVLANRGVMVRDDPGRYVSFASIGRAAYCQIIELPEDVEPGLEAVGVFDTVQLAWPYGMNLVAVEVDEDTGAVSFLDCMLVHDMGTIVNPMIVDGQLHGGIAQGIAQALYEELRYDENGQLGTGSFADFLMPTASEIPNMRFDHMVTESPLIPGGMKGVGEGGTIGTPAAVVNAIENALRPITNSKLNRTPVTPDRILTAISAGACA
T2 sequence (D7REY4 1-295 partner): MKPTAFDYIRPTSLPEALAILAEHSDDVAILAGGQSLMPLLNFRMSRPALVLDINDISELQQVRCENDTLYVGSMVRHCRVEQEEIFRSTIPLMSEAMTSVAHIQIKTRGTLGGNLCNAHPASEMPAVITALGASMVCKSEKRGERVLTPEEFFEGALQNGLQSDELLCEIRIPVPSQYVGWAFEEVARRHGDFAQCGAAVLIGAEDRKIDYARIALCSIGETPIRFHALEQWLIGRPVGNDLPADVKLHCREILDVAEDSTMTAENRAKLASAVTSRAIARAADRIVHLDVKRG
T2 sequence (D7REY5 1-167 partner): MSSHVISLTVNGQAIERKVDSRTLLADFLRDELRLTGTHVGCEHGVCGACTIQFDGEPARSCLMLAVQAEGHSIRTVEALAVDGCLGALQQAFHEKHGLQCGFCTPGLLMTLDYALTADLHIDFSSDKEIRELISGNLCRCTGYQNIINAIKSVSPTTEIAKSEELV
The note with it: cited from earlier work.

Data set [5] relates to NdmC. The data set is described as follows: N-demethylation by NdmC fraction co-purified with reductase. The class given is biochemical, Pseudomonas putida CBB5. The source says: This activity was neither associated with NdmA nor with NdmB. […] Cloning of NdmC has proven difficult; nevertheless based on the fact that purified His6-NdmD had no activity on 7-methylxanthine, we annotate orf 8 as aanother RO with highly specific N-7 demthylase activity.

Data set [6] has as its target Ndm (methylxanthine N-demethylase) with Ccr reductase (Pseudomonas putida, UniProt H9N289+H9N290). The note with it: for O-demethylation by Ndm: prolonged incubation.
The subject of data set [7] is Ndm (methylxanthine N-demethylase) with Ccr reductase.
Data set [8] has as its target T3, Ndm, two-subunit N-demethylase component purified from Pseudomonas putida CBB5, H9N289.
T3 chain 1: T1 sequence (H9N289 1-351)
T3 chain 2: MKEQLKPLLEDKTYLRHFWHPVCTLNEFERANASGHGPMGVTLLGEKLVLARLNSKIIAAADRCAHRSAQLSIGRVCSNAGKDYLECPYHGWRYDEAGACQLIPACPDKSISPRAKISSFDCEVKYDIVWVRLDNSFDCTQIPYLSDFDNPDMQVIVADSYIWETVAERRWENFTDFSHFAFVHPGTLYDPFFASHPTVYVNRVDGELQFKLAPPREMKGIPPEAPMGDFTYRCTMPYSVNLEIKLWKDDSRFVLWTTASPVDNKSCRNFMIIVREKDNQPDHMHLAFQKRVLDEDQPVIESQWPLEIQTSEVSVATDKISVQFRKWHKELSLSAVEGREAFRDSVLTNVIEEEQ

The term Km denotes the substrate concentration at which the rate is half of its maximum. The kcat is the maximal rate divided by the concentration of active sites.

Values joined by “and” are separate entries in the source; they are usually repeats but may differ in a detail not shown here. Equal entries are not always repeated. Where two headings read alike, the source gives them in different places.

`Cn1c(=O)[nH]c2nc[nH]c2c1=O` [1-methylxanthine]: the “N-demethylation activity of NdmB” value in data set [1] is recorded as “no activity”. The Km entry was “∞” in data set [1] and 267 µM in data set [2] (read-out: Km). Also, the kcat in data set [2] was determined as 0.26 s⁻¹.
For `Cn1c(=O)[nH]c(=O)c2[nH]cnc21` [3-Methylxanthine, 3-methylxanthine], in data set [1], the kcat stood at 0.528 s⁻¹. Also, in data set [1] (read-out: Km), the Km amounted to 22.4 µM. In data set [2], the “N-demethylation activity of NdmA” value is “inactive” and the Michaelis-Menten constant (Km) entry was “∞”.
For `Cn1c(=O)c2c(ncn2C)n(C)c1=O` [Caffeine, 1,3,7-trimethylxanthine], the values for the kcat in data set [1] and in data set [2] were 0.00383 s⁻¹ and 3.205 s⁻¹, respectively. Moreover, the Km is 41.7 µM in data set [1] (read-out: Km); 3.7 ± 0.9 µM in data set [4] (Yu et al., 2008); 37.6 µM in data set [2] (read-out: Km). In data set [3], the “degradation rate compared with paraxanthine” value is “significantly slower”. Moreover, the “N-demethylation by NdmC/reductase fraction” value in data set [5] is recorded as “not N-demethylated”.
For `Cn1c(=O)[nH]c2ncn(C)c2c1=O` [Paraxanthine, 1,7-dimethylxanthine], in data set [1], the “N-demethylation activity of NdmB” value is “no activity”. The Km result in data set [1] is “∞”; in data set [2] (read-out: Km), 52.9 µM; in data set [7] (read-out: apparent KM, saturating Ccr, 50 μM Fe2+, 30° C., 50 mM KPi pH 7.5), 50.4 ± 6.8 µM. In data set [3] (0.5 mM NADH), the “time to complete utilization” value was “about 20 minutes”. The kcat in data set [2] was 2.215 s⁻¹. In addition, in data set [5], the “N-demethylation by NdmC/reductase fraction” value is recorded as “not N-demethylated”. Also, in data set [6] (after 13 minutes, 100 μM paraxanthine, 0.2 mg Ndm, 4 U Ccr), the “paraxanthine N-demethylated” value is 60.2 µM. Also, the apparent kcat in data set [7] (saturating Ccr, 50 μM Fe2+, 30° C., 50 mM KPi pH 7.5) turned out to be 0.27 ± 0.01 s⁻¹.
`Cn1cnc2c1c(=O)[nH]c(=O)n2C` [Theobromine, 3,7-dimethylxanthine]: the kcat in data set [1] stood at 0.772 s⁻¹. Also, the Km in data set [1] (read-out: Km) is 25.3 µM. Moreover, the “degradation rate compared with paraxanthine” value in data set [3] is given as “significantly slower”. The “Preference as a substrate, times less than caffeine” value in data set [4] is on record as 50 times. Moreover, in data set [2], the “N-demethylation activity of NdmA” value was “inactive” and the Km entry is given as “∞”. The “N-demethylation by NdmC/reductase fraction” value in data set [5] is listed as “not N-demethylated”.
Consider `Cn1c(=O)c2[nH]cnc2n(C)c1=O` [Theophylline, 1,3-dimethylxanthine], for which the kcat in data set [1] was determined as 0.0045 s⁻¹. In data set [1] (read-out: Km), the Km was found to be 169 µM. Moreover, in data set [3], the “degradation rate compared with paraxanthine” value is “significantly slower”. In addition, in data set [4], the “activity of Cdh” value is given as “no activity” and the “activity of Cdh in substrate specificity study” value was 5%.
In the case of `COc1cc(C(=O)O)ccc1O` [vanillate], the “O-demethylation by Ndm” value in data set [6] was “did not catalyze O-demethylation”.
Same read-out and setting: the same measure for `COc1cc(C=O)ccc1O` [vanillin]: “did not catalyze O-demethylation”.
For the molecule `O=c1[nH]c(=O)c2[nH]cnc2[nH]1` [xanthine], in data set [4], the “activity of Cdh” value was “no activity” and the “activity of Cdh in substrate specificity study” value is listed as “none”. Moreover, in data set [7] (90 minutes, 7.4 mU (7.4 units) of Ndm), the “product formed from paraxanthine” value is 193.7 ± 4.0 µM and 193.7 ± 14.0 µM. This molecule had a N-demethylation product present in data set [7] (from paraxanthine, after 13 minutes) of around 20.3 µM.

B1: Reductase component of Pseudomonas sp. 9816 naphthalene dioxygenase (protein)
chain: MELLIQPNNRIIPFSAGANLLEVLRENGVAISYSCLSGRCGTCRCRVIDGSVIDSGAENGQSNLTDKQYVLACQSVLTGNCAIEVPEADEIVTHPARIIKGTVVAVESPTHDIRRLRVRLSKPFEFSPGQYATLQFSPEHARPYSMAGLPDDQEMEFHIRKVPGGRVTEYVFEHVREGTSIKLSGPLGTAYLRQKHTGPMLCVGGGTGLAPVLSIVRGALKSGMTNPILLYFGVRSQQDLYDAERLHKLAADHPQLTVHTVIATGPINEGQRAGLITDVIEKDILSLAGWRAYLCGAPAMVEALCTVTKHLGISPEHIYADAFYPGGI
Consider B1, for which the N-demethylase activity entry in data set [8] was “Ndm did not function in the presence of the reductase and ferredoxin components of Pseudomonas sp. 9816 naphthalene dioxygenase”.

B2: Spinach ferredoxin reductase (protein)
chain: QIASDVEAPPPAPAKVEKHSKKMEEGITVNKFKPKTPYVGRCLLNTKITGDDAPGETWHMVFSHEGEIPYREGQSVGVIPDGEDKNGKPHKLRLYSIASSALGDFGDAKSVSLCVKRLIYTNDAGETIKGVCSNFLCDLKPGAEVKLTGPVGKEMLMPKDPNATIIMLGTGTGIAPFRSFLWKMFFEKHDDYKFNGLAWLFLGVPTSSSLLYKEEFEKMKEKAPDNFRLDFAVSREQTNEKGEKMYIQTRMAQYAVELWEMLKKDNTYFYMCGLKGMEKGIDDIMVSLAAAEGIDWIEYKRQLKKAEQWNVEVY
For B2, the N-demethylase activity result in data set [8] is given as “Ndm did not couple with ferredoxin reductase plus ferredoxin from spinach”.
